Here are results for one molecule from publication PMC5491650, “Structure-Activity Relationships of Pentacyclic Triterpenoids as Potent and Selective Inhibitors against Human Carboxylesterase 1” (Frontiers in Pharmacology, 2017).

pIC50, pKi: −log10 of the molar value. Entries after “also recorded” stand apart in the source; their conditions may differ.

Type in all cases: biochemical
The target in assay [1] is T1, hCE1 (Homo sapiens, UniProt P23141).
T1 sequence (P23141 18-567): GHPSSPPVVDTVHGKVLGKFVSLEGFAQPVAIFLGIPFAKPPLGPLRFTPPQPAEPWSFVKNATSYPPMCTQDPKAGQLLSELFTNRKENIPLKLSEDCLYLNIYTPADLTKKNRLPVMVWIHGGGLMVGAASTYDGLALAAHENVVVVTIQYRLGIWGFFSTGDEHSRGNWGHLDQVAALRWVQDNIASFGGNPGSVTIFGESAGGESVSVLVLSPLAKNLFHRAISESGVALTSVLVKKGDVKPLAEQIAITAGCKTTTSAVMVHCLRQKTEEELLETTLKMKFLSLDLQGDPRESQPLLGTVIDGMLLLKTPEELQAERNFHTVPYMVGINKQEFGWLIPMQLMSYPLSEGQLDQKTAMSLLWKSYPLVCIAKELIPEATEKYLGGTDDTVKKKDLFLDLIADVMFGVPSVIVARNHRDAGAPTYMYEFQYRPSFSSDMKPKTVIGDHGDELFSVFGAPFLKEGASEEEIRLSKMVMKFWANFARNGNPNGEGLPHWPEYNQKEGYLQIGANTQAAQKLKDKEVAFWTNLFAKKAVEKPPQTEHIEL
Put plainly: hCE1 inhibition assay, DME hydrolysis in human liver microsomes.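 Further: carboxylesterase inhibition read out as probe hydrolysis, with DME serving as hCE1 substrate and DDAB as hCE2 substrate, in DMSO below 2% (V/V).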 Details: tissue Celsis (Shanghai, China); host or cells: human liver microsomes (HLM).
Experimental: (§1) All fluorescence-based assays were performed on Synergy H^1 Hybrid Multi-Mode Microplate Reader (BioTek, USA).
(§2) The inhibitory effects toward CEs were assayed using DME and DDAB as the specific probe substrates for hCE1 and hCE2, respectively. […] Control incubations without BNPP were also performed. After incubation, ice-cold acetonitrile (equal volume of incubation mixture, 200 μL) was added to terminate the reaction. The mixture was then centrifuged at 20,000 g for 20 min at 4°C. All these compounds dissolved in DMSO, and the final concentration of DMSO was <2% (V/V). Aliquots of the supernatant were then taken for further microplate reader analyses. […] First, each of the potential esterase inhibitors was pre-incubated with HLM at 37°C for 10 min with shaking in microplate reader. Then DME was added to start the reaction. After incubation at 37°C for 10 min in a shaking bath, LDR (equal volume of incubation mixture, 50 μL) was added to terminate the reaction, and luminescence measurements were conducted as described above.

In another assay the target is T2, hCE2 (Homo sapiens, UniProt O00748).
T2 construct: tissue Celsis (Shanghai, China); host or cells: human liver microsomes (HLM)
T2 sequence (O00748 27-559): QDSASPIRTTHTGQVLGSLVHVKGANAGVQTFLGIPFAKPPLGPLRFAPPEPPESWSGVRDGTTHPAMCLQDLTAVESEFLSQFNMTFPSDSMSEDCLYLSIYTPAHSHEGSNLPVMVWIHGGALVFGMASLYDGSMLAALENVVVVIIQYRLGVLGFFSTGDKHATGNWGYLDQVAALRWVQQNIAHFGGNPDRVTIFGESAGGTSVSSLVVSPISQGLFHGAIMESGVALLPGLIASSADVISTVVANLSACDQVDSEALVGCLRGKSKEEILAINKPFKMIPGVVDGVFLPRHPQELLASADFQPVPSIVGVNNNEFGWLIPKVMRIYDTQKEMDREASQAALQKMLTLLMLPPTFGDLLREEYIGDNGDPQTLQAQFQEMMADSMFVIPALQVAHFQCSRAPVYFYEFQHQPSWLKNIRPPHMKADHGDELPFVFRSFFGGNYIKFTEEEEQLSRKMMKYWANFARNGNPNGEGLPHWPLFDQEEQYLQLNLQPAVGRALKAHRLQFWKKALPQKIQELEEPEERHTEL
Put plainly: hCE2 inhibition assay, DDAB hydrolysis in human liver microsomes. To be noted: DDAB as probe substrate, HLM; averages of at least three experiments; read-out: IC50 (hCE2). A general note: Microsomes from liver hold many membrane-bound enzymes, among them those of drug oxidation.

The target in assay [2] is T1, hCE1. Put plainly: Inhibition of DME hydrolysis by recombinant hCE1. On the procedure: To further investigate the inhibitory behaviors of compound 22 on the catalytic activity of hCE1, the inhibition behaviors of this compound against hCE1 were performed. […] In addition, the inhibitory tendency and potency of compound 22 against DME-hydrolysis in both HLMs and hCE1 were much closed (Figure S1).

Assay [3] addresses T1, hCE1. The assay can be described thus: Inhibition of hCE1-mediated BMBT hydrolysis in HLMs. More on the design: tissue Celsis (Shanghai, China); host or cells: human liver microsomes (HLM). How it is done: The half maximal inhibitory concentration (IC50) of each compound was determined using various inhibitor concentrations under the same incubation conditions as mentioned above. The inhibition constant (Ki) values of compound 22 against hCE1 in HLM were determined using varied concentrations of DME in the presence or absence of each inhibitor. […] Dixon plot and Lineweaver-Burk plots were used to fit the data. The inhibition kinetic type was evaluated by determining the intersection point in the Dixon and Lineweaver-Burk plots. The second plots based on the slopes from Lineweaver-Burk plot vs. inhibitor concentrations were utilized to calculate each the inhibition constant (Ki) value (Wang et al., [2015]; Zhu et al., [2015], [2016]).
To this end, another optical probe substrate (BMBT) for hCE1 was used for further investigation on the inhibition behaviors of compound 22 (Liu et al., [2014]).

Experimental for hCE2: as §1, §2

A word on the pKi: it is −log10 of the Ki, conventionally taken in molar units. Read a low pKi as a high Ki. For orientation: pIC50 means the IC50 on a negative log10 scale, so that one unit is a factor of ten. On to `CC1CCC2(C(=O)O)CCC3(C)C(=CCC4C5(C)CCC(OC(=O)CCC(=O)O)C(C)(C)C5CCC43C)C2C1C` (stereo not drawn) [Compound 22, 3β-O-(β-carboxypropionyl)-urs-12-en-28-oic acid], for which the pKi at hCE1 [1] was 7.90; at hCE1 [3], 7.45. For the same molecule, at hCE1 [1] (HLMs, Lineweaver-Burk plots), the “inhibition type against hCE1-mediated DME hydrolysis” value was “competitive inhibitor; also recorded: competitive inhibition”. Moreover, the pIC50 is 7.92 at hCE1 [1] (IC50 (hCE1), DME as probe substrate, HLM, averages of at least three experiments); 7.90 at hCE1 [1] (IC50 against hCE1, DME hydrolysis in HLM); 4.08 on hCE2; 8.04 at hCE1 [2]; 7.52 against hCE1 [3]. Also, at hCE1 [1] (calculated from IC50 (hCE2)/IC50 (hCE1) as printed), the Selectivity is given as 6919.2. Besides, at hCE1 [1] (hCE1 versus hCE2, values of the text), the “selectivity over hCE2” value was 6,919 fold. Also, the “Observed Log(IC50_hCE1)” value at hCE1 [1] (log of the experimental IC50 in μM, used for 3D-QSAR) is listed as -1.921 μM. Moreover, the “inhibition type against hCE1-mediated BMBT hydrolysis” value against hCE1 [3] (HLMs, Lineweaver-Burk plot) is recorded as “non-competitive inhibitor”.
